This note sets out measurements from publication PMC5496853, “Dual activation of neuronal G protein-gated inwardly rectifying potassium (GIRK) channels by cholesterol and alcohol” (Scientific Reports, 2017).

Assay [1] has as its target T1, GIRK2 (Mus musculus, UniProt P48542).
T1 construct: gene Kcnj6; amino acids 52-380
T1 sequence (P48542 52-380): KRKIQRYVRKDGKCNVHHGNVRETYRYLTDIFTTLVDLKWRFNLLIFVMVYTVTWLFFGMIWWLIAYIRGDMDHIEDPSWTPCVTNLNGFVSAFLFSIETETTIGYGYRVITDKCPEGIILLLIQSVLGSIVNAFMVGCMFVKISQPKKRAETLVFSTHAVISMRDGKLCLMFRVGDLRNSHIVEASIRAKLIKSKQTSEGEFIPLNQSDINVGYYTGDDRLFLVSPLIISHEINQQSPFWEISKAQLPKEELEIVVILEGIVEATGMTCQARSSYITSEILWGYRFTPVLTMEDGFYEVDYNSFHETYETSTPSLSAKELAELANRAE
The experiment in a line: fluorescence (ACMA) K+ flux assay, purified channel reconstituted in liposomes. The assay is classed as biochemical.

The target of assay [2] is T1, GIRK2. The assay is described as follows: fluorescence (ACMA) K+ flux assay, purified channel reconstituted in liposomes with brain PIP2. The assay is classed as biochemical.

Molecules are shown by their SMILES.

As for `CCCCCCCC(=O)OC[C@H](COP(=O)(O)O[C@@H]1[C@H](O)[C@H](O)[C@@H](OP(=O)(O)O)[C@H](OP(=O)(O)O)[C@H]1O)OC(=O)CCCCCCC` [diC8-PIP2], the 50% effective concentration (EC50) in assay [1] worked out at 25.1 ± 3.3 µM.
Regarding `CCO` [ethanol], the “fluorescence (ACMA) K+ flux assay, purified channel reconstituted in liposomes w” value in assay [2] is recorded as more than 20 mM.
